This is an account of results in ChEMBL document CHEMBL3259784, “Synthesis of novel 2-mercaptobenzoxazole based 1,2,3-triazoles as inhibitors of proinflammatory cytokines and suppressors of COX-2 gene expression” (Eur J Med Chem, 2014).

Usually pIC50 stands for the negative decadic logarithm of the IC50, by convention in mol/L. High values mean a low IC50, low ones a high IC50. In general, inhibition in vivo refers to the drop in the measured response relative to a control, in per cent.

Data set [1] deals with T1, Prostaglandin G/H synthase 2 (Homo sapiens, UniProt P35354).
T1 sequence (P35354 whole entry): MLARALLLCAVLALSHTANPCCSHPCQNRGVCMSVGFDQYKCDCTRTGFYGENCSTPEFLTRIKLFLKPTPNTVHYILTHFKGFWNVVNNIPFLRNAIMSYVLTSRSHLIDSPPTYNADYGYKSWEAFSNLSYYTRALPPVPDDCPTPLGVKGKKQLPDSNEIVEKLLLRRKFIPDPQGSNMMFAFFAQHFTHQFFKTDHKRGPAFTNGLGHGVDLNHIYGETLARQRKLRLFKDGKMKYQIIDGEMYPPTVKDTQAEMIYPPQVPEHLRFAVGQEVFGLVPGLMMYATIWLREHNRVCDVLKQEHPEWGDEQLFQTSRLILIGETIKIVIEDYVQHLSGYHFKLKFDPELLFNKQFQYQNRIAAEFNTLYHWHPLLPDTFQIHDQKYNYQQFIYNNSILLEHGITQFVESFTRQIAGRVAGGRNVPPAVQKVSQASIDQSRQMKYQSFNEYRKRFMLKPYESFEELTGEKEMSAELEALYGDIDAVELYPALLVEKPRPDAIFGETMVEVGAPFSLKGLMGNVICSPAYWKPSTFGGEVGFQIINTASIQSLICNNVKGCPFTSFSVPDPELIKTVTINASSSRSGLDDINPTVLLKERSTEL
In words: Inhibition of COX-2 (unknown origin).

The test system of data set [2] is Rattus norvegicus. In words: Antiinflammatory activity in Albino Wistar rat assessed as inhibition of carrageenan-induced hind paw edema at 0.05 mmol/kg, po treated 1 hr before carrageenan challenge by plethysmometer analysis. It counts as functional, organism-based. The following applies: TDE = time-dependent effect. Background: In the carrageenan paw model, swelling and tenderness develop within hours.

For data set [3], the system named is Rattus norvegicus. In words: Antiinflammatory activity against carrageenan-induced hind paw Albino Wistar rat model assessed as reduction in nitric oxide level in hind paw at 0.05 mmol/kg, po treated 1 hr before carrageenan challenge by griess reagent based microplate reader analysis. The format is functional, organism-based.
For data set [4], the target named is Prostaglandin G/H synthase 1 (Homo sapiens, UniProt P23219). In words: Inhibition of COX-1 (unknown origin).
The test system of data set [5] is Rattus norvegicus. In words: Ulcerogenicity in Albino Wistar rat assessed as gastric ulceration and rupture of gastric mucosal layer at 0.15 mmol/kg, po measured after 5 hrs. It counts as toxicity, organism-based, Gastric mucosa. The following applies: in vivo.
Data set [6] relates to Rattus norvegicus. In words: Antiinflammatory activity against carrageenan-induced hind paw Albino Wistar rat model assessed as reduction in serum IL-1 beta level at 0.05 mmol/kg, po treated 1 hr before carrageenan challenge by ELISA. The format is functional.
The subject of data set [7] is Mus musculus. The experiment in a line: Antinociceptive activity in mouse assessed as inhibition of acetic acid-induced writhing at 0.05 mmol/kg, po administered 30 mins prior to acetic acid challenge measured for 20 mins after acetic acid injection. It counts as functional.
The subject of data set [8] is Rattus norvegicus. The experiment in a line: Antiinflammatory activity in Albino Wistar rat assessed as inhibition of carrageenan-induced hind paw edema at 0.05 mmol/kg, po treated 1 hr before carrageenan challenge measured 5 hrs post-carrageenan injection by plethysmometer analysis. The format is functional.
The subject of data set [9] is Rattus norvegicus. In words: Antiinflammatory activity in Albino Wistar rat assessed as inhibition of carrageenan-induced hind paw edema at 0.05 mmol/kg, po treated 1 hr before carrageenan challenge measured 3 hrs post-carrageenan injection by plethysmometer analysis. The format is functional.
Data set [10] relates to Rattus norvegicus. In words: Antiinflammatory activity against carrageenan-induced hind paw Albino Wistar rat model assessed as reduction in serum COX2 level at 0.05 mmol/kg, po treated 1 hr before carrageenan challenge by ELISA. The format is functional.
For data set [11], the system named is Rattus norvegicus. In words: Antiinflammatory activity against carrageenan-induced hind paw Albino Wistar rat model assessed as reduction in serum TNF-alpha level at 0.05 mmol/kg, po treated 1 hr before carrageenan challenge by ELISA. It counts as functional.
Data set [12] has as its system Rattus norvegicus. In words: Antioxidant activity in carrageenan-induced hind paw Albino Wistar rat model assessed as inhibition of lipid peroxidation by measuring TBARS level in hind paw at 0.05 mmol/kg, po treated 1 hr before carrageenan challenge by microplate reader analysis. It counts as functional.
Data set [13] has as its system Rattus norvegicus. The experiment in a line: Antiinflammatory activity against carrageenan-induced hind paw Albino Wistar rat model assessed as reduction in nitric oxide level in hind paw at 0.05 mmol/kg, po treated 1 hr before carrageenan challenge measured per mg of wet tissue by griess reagent based microplate reader analysis. The format is functional.
For data set [14], the system named is Rattus norvegicus. The experiment in a line: Antioxidant activity in carrageenan-induced hind paw Albino Wistar rat model assessed as increase in GSH level in hind paw joint at 0.05 mmol/kg, po treated 1 hr before carrageenan challenge measured per gm of tissue by plate reader analysis (reference value: 0.58 +/-0.02 ug). The format is functional.
Data set [15] concerns HeLa. The experiment in a line: Decrease in COX-2 gene expression in human HeLa cells at 10 uM after 24 hrs by real time PCR analysis relative to celecoxib. It counts as functional. On the technique in general: Quantitative PCR measures a nucleic acid by following its amplification.

pIC50: −log10 of the molar value. Active and inactive are the calls of the source. No cut-off for these calls is given here.

Prostaglandin G/H synthase 1, sequence (P23219 whole entry): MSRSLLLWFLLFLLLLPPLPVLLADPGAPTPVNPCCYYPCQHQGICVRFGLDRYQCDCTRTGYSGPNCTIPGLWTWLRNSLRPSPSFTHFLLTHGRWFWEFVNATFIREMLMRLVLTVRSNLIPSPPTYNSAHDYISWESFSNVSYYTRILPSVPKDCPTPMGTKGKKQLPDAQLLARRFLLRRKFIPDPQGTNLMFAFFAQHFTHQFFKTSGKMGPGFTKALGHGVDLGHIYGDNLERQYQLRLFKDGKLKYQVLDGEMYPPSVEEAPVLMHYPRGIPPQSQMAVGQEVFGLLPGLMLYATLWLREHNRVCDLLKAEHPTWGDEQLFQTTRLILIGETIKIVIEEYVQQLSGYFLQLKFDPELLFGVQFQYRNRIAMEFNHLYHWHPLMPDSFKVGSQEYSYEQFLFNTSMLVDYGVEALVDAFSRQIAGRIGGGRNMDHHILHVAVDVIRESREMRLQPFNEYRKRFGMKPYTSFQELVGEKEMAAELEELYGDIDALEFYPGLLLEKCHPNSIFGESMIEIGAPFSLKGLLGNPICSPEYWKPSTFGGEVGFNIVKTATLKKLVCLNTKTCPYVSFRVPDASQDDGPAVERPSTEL

As to `CC(C)(C)c1ccc(-n2cc(CSc3nc4ccccc4o3)nn2)cc1`, the negative logarithm of the IC50 (pIC50) in data set [1] was 5.41; in data set [4] it was 3.81. The inhibition entry in data set [2] was “tde”. For the same compound, the inhibition result in data set [3] is “Active”.
`Clc1ccccc1-n1cc(CSc2nc3ccccc3o2)nn1`: the pIC50 is 5.45 in data set [1] and 4.35 in data set [4]. In data set [2], the inhibition result was “tde”. Besides, the inhibition entry in data set [3] is “Active”.
As for `Clc1ncccc1-n1cc(CSc2nc3ccccc3o2)nn1`, the negative logarithm of the IC50 (pIC50) was 5.30 in [1] and 3.99 in data set [4]. For the same compound, the inhibition entry in data set [2] is “tde”. In addition, in data set [3], the inhibition entry was “Active”.
For `c1ccc(-n2cc(CSc3nc4ccccc4o3)nn2)cc1` the same measures were 5.19, 3.97, “tde” and “Active”.
For the compound `Clc1ccc(-n2cc(CSc3nc4ccccc4o3)nn2)cc1`, the Activity result in [5] was “Non-toxic”. Moreover, the inhibition result in data set [6], in [3], in data set [10] and in data set [11] was “Active” in each case. Also, the negative logarithm of the IC50 (pIC50) in [1] was 5.72; in [4], 4.09. The inhibition in vivo at 50 µmol/kg in data set [7] was 51.5%; in data set [8], 55.5%; in data set [9], 68.9%. Also, the inhibition result in data set [2] was “tde”.
For `Fc1ccccc1-n1cc(CSc2nc3ccccc3o2)nn1`, the negative-log IC50 (pIC50) was 5.62 in data set [1] and 4.62 in data set [4]. Besides, in data set [2], the inhibition entry was “tde”. Also, the inhibition entry in data set [3] was “Active”.
In the same order, the values of `Brc1ccccc1-n1cc(CSc2nc3ccccc3o2)nn1` are 5.56, 4.42, “tde” and “Active”.
Take `Cc1ccc(-c2cc(C(F)(F)F)nn2-c2ccc(S(N)(=O)=O)cc2)cc1` [CELECOXIB]: the Activity in data set [12] came to 6.3 nmol; in data set [6], 2.9 pg/mL; in [10] it was 7.9 nmol/min/mL; in data set [13], 5.5 µmol; in data set [14], 0.81 µg; in [11], 3.35 pg/mL. Further, the inhibition in vivo at 50 µmol/kg in data set [7] was found to be 70.9%; in data set [8], 65.5%; in [9] it was 72.2%. In addition, the inhibition entry in data set [3] is “Active”.
Regarding `Clc1cccc(-n2cc(CSc3nc4ccccc4o3)nn2)c1`, the pIC50 in data set [1] is 5.33; in data set [4] it was 4.05. Besides, the inhibition result in data set [2] is “tde”. The inhibition result in [3] was “Active”.
For `Cc1ccc(-n2cc(CSc3nc4ccccc4o3)nn2)cc1C` the same measures were 5.36, 3.85, “tde” and “Active”.
Regarding `CCOc1ccc(-n2cc(CSc3nc4ccccc4o3)nn2)cc1`, the Activity entry was “Non-toxic” in data set [5], 5.1 nmol in [12], 2.66 pg/mL in data set [6] and 0.84 µg in data set [14]. For the same compound, the values for the negative logarithm of the IC50 (pIC50) in data set [1] and in [4] were 5.46 and 3.79, respectively. Besides, the inhibition result in data set [2] is “tde”. Also, the inhibition result in [3], in data set [10] and in [11] was “Active” throughout.
Regarding `O=[N+]([O-])c1cccc(-n2cc(CSc3nc4ccccc4o3)nn2)c1`, the negative-log IC50 (pIC50) was 5.02 in data set [1] and 3.98 in data set [4]. Further, in data set [2], the inhibition result is “tde”. Moreover, in data set [3], the inhibition result is “Active”.
With `COc1ccc(-n2cc(CSc3nc4ccccc4o3)nn2)cc1`, the Activity entry in data set [5] is “Non-toxic”; in [10], 6.54 nmol/min/mL; in data set [11], 3.1 pg/mL. The inhibition result in data set [6] and in data set [3] was “Active” each time. For the same compound, the figures for the negative logarithm of the IC50 (pIC50) in data set [1] and in data set [4] were 5.64 and 4.05, respectively. Also, the inhibition in vivo at 50 µmol/kg in [7] is 55.5%. In addition, in [2], the inhibition result was “tde”.
As to `c1cncc(-n2cc(CSc3nc4ccccc4o3)nn2)c1`, the results for the negative logarithm of the IC50 (pIC50) in data set [1] and in [4] were 5.40 and 4.02, respectively. For the same compound, the inhibition result in data set [2] was “tde”. Moreover, the inhibition result in data set [3] is “Active”.
For the compound `Cc1ccccc1-n1cc(CSc2nc3ccccc3o2)nn1`, the pIC50 in [1] was 5.33; in data set [4] it was 3.88. Further, in data set [2], the inhibition entry is “tde”. In data set [3], the inhibition result is “Active”.
For `CCc1ccc(-n2cc(CSc3nc4ccccc4o3)nn2)cc1`, the Activity entry in data set [5] was “Non-toxic”; in data set [13], 5.1 µmol; in [14], 0.84 µg. In addition, the “fold change (FC)” value in data set [15] was 0.94. The inhibition entry in data set [6], in data set [3], in data set [10] and in [11] was “Active” in each case. The values for the pIC50 in data set [1] and in [4] were 5.42 and 3.61, respectively. Further, the results for the inhibition in vivo at 50 µmol/kg in data set [8] and in data set [9] were 61.1% and 66.7%, respectively. In data set [2], the inhibition entry is “tde”.
`Brc1ccc(-n2cc(CSc3nc4ccccc4o3)nn2)cc1`: in data set [5], the Activity result was “Non-toxic”. For the same compound, the “fold change (FC)” value in data set [15] turned out to be 0.79. In addition, the inhibition entry in data set [6], in data set [3], in data set [10] and in data set [11] was “Active” each time. Besides, the pIC50 in data set [1] is 5.55; in data set [4], 3.73. Besides, the inhibition entry in data set [2] is “tde”.
Consider `O=[N+]([O-])c1ccc(-n2cc(CSc3nc4ccccc4o3)nn2)cc1`, for which the negative-log IC50 (pIC50) in data set [1] was 5.01; in [4], 3.94. The inhibition result in data set [2] was “tde”. For the same compound, the inhibition entry in data set [3] was “Active”.
For `Fc1ccc(-n2cc(CSc3nc4ccccc4o3)nn2)cc1` the same measures were 5.28, 3.72, “tde” and “Active”.
